Experimental data taken from ChEMBL document CHEMBL5385915 (J Med Chem, 2024).
Activity calls are given as the source filed them. The rule behind the calls is not given here.

Assays:
[1] = tested on: Mycobacterium tuberculosis variant bovis; assay: Downregulation of hadA gene expression in Mycobacterium bovis BCG at 1 times MIC incubated for 8 hrs by RNA-sequencing analysis; type: functional
[2] = tested on: Mycobacterium tuberculosis variant bovis; assay: Downregulation of fabG1 gene expression in Mycobacterium bovis BCG at 1 times MIC incubated for 8 hrs by RNA-sequencing analysis; type: functional
[3] = tested on: Mycobacterium tuberculosis variant bovis; assay: Downregulation of inhA gene expression in Mycobacterium bovis BCG at 1 times MIC incubated for 8 hrs by RNA-sequencing analysis; type: functional
[4] = tested on: Mycobacterium tuberculosis variant bovis; assay: Downregulation of acpM gene expression in Mycobacterium bovis BCG at 1 times MIC incubated for 8 hrs by RNA-sequencing analysis; type: functional
[5] = tested on: Mycobacterium tuberculosis variant bovis; assay: Downregulation of mmaA2 gene expression in Mycobacterium bovis BCG at 1 times MIC incubated for 8 hrs by RNA-sequencing analysis; type: functional
[6] = tested on: Mycobacterium tuberculosis variant bovis; assay: Downregulation of mmaA3 gene expression in Mycobacterium bovis BCG at 1 times MIC incubated for 8 hrs by RNA-sequencing analysis; type: functional
[7] = tested on: Mycobacterium tuberculosis variant bovis; assay: Downregulation of fbpA gene expression in Mycobacterium bovis BCG at 1 times MIC incubated for 8 hrs by RNA-sequencing analysis; type: functional
[8] = tested on: Mycobacterium tuberculosis variant bovis; assay: Downregulation of fbpD gene expression in Mycobacterium bovis BCG at 1 times MIC incubated for 8 hrs by RNA-sequencing analysis; type: functional
[9] = tested on: Mycobacterium tuberculosis variant bovis; assay: Downregulation of desA2 gene expression in Mycobacterium bovis BCG at 1 times MIC incubated for 8 hrs by RNA-sequencing analysis; type: functional
[10] = tested on: Mycobacterium tuberculosis variant bovis; assay: Upregulation of cmtR gene expression in Mycobacterium bovis BCG at 1 times MIC incubated for 8 hrs by RNA-sequencing analysis; type: functional
[11] = tested on: Mycobacterium tuberculosis variant bovis; assay: Upregulation of zur gene expression in Mycobacterium bovis BCG at 1 times MIC incubated for 8 hrs by RNA-sequencing analysis; type: functional
[12] = tested on: Mycobacterium tuberculosis variant bovis; assay: Upregulation of ideR gene expression in Mycobacterium bovis BCG at 1 times MIC incubated for 8 hrs by RNA-sequencing analysis; type: functional
[13] = tested on: Mycobacterium tuberculosis variant bovis; assay: Upregulation of tcrYX gene expression in Mycobacterium bovis BCG at 1 times MIC incubated for 8 hrs by RNA-sequencing analysis; type: functional
[14] = tested on: Mycobacterium tuberculosis variant bovis; assay: Upregulation of mbtB gene expression in Mycobacterium bovis BCG at 1 times MIC incubated for 8 hrs by RNA-sequencing analysis; type: functional
[15] = tested on: Mycobacterium tuberculosis variant bovis; assay: Upregulation of mbtC gene expression in Mycobacterium bovis BCG at 1 times MIC incubated for 8 hrs by RNA-sequencing analysis; type: functional
[16] = tested on: Mycobacterium tuberculosis variant bovis; assay: Upregulation of mbtD gene expression in Mycobacterium bovis BCG at 1 times MIC incubated for 8 hrs by RNA-sequencing analysis; type: functional
[17] = tested on: Mycobacterium tuberculosis variant bovis; assay: Effect on nuoA-N gene expression in Mycobacterium bovis BCG at 1 times MIC incubated for 8 hrs by RNA-sequencing analysis; type: functional
[18] = tested on: Mycobacterium tuberculosis variant bovis; assay: Effect on qcrA-C gene expression in Mycobacterium bovis BCG at 1 times MIC incubated for 8 hrs by RNA-sequencing analysis; type: functional
[19] = tested on: Mycobacterium tuberculosis variant bovis; assay: Effect on ctaC-E gene expression in Mycobacterium bovis BCG at 1 times MIC incubated for 8 hrs by RNA-sequencing analysis; type: functional
[20] = tested on: Mycobacterium tuberculosis variant bovis; assay: Effect on cydA-D gene expression in Mycobacterium bovis BCG at 1 times MIC incubated for 8 hrs by RNA-sequencing analysis; type: functional
[21] = tested on: Mycobacterium tuberculosis variant bovis; assay: Effect on narG-J gene expression in Mycobacterium bovis BCG at 1 times MIC incubated for 8 hrs by RNA-sequencing analysis; type: functional
[22] = tested on: Mycobacterium tuberculosis variant bovis; assay: Upregulation of mmpL5 gene expression in Mycobacterium bovis BCG at 1 times MIC incubated for 8 hrs by RNA-sequencing analysis; type: functional
[23] = tested on: Mycobacterium tuberculosis variant bovis; assay: Upregulation of mmpS5 gene expression in Mycobacterium bovis BCG at 1 times MIC incubated for 8 hrs by RNA-sequencing analysis; type: functional
[24] = tested on: Mycobacterium tuberculosis variant bovis BCG; assay: Inhibition of cell wall biosynthesis in Mycobacterium bovis BCG assessed as reduction in trehalose monomycolate accumulation at 0.5 times MIC incubated for 12 hrs in presence of [14C]acetate by TLC based autoradiography analysis; type: functional, organism-based
[25] = tested on: Mycobacterium tuberculosis variant bovis BCG; assay: Inhibition of cell wall biosynthesis in Mycobacterium bovis BCG assessed as reduction in trehalose dimycolate accumulation at 0.5 times MIC incubated for 12 hrs in presence of [14C]acetate by TLC based autoradiography analysis; type: functional, organism-based
[26] = tested on: Mycobacterium tuberculosis variant bovis BCG; assay: Inhibition of cell wall biosynthesis in Mycobacterium bovis BCG assessed as formation of cytoplasmic membrane phospholipids at 0.5 times MIC incubated for 12 hrs in presence of [14C]acetate by TLC based autoradiography analysis; type: functional, organism-based
[27] = tested on: Mycobacterium tuberculosis variant bovis BCG; assay: Inhibition of mycolic acid biosynthesis in Mycobacterium bovis BCG assessed as decrease in alpha mycolic acid transfer onto cell wall arabinogalactan at 0.5 times MIC incubated for 12 hrs in presence of [14C]acetate by TLC based autoradiography analysis; type: functional, organism-based
[28] = tested on: Mycobacterium tuberculosis variant bovis BCG; assay: Inhibition of mycolic acid biosynthesis in Mycobacterium bovis BCG assessed as decrease in keto mycolic acid transfer onto cell wall arabinogalactan at 0.5 times MIC incubated for 12 hrs in presence of [14C]acetate by TLC based autoradiography analysis; type: functional, organism-based
[29] = tested on: Mycobacterium tuberculosis variant bovis BCG; assay: Inhibition of late-stage mycolic acid biosynthesis in Mycobacterium bovis BCG at 5 times MIC incubated for 6 hrs by TLC based autoradiography analysis; type: functional, organism-based

CNC[C@@H]1C[C@H](c2ccc(OC(F)(F)F)cc2)N1Cc1ccccc1OC(F)(F)F (racemic)
Activity [1]: Active
Activity [2]: Active
Activity [3]: Active
Activity [4]: Active
Activity [5]: Active
Activity [6]: Active
Activity [7]: Active
Activity [8]: Active
Activity [9]: Active
Activity [10]: Active
Activity [11]: Active
Activity [12]: Active
Activity [13]: Active
Activity [14]: Active
Activity [15]: Active
Activity [16]: Active
Activity [17]: Active
Activity [18]: Active
Activity [19]: Active
Activity [20]: Active
Activity [21]: Active
Activity [22]: Active
Activity [23]: Active
inhibition [24]: Active
inhibition [25]: Active
inhibition [26]: inactive
inhibition [27]: Active
inhibition [28]: Active
inhibition [29]: Active

Brc1cc(Br)cc([C@H]2C[C@@H](CN3CCCC3)N2Cc2ccccc2Br)c1 (racemic)
inhibition [29]: Active
